Test [1] addresses GDP-bound HRAS wild-type protein (Homo sapiens, UniProt P01112). Put plainly: Binding to HRAS by surface plasmon resonance (SPR), Single Cycle Kinetics. The following applies: for HRAS/KRAS (ratio of KD value with respect to GDP-bound HRAS wild-type protein to KD value with respect to KRAS): SPR KD ratio HRAS/KRAS, class symbols. (Surface plasmon resonance follows binding to a sensor surface in real time, without labels.)

Test [2] has as its target GDP-bound NRAS wild-type protein (Homo sapiens, UniProt P01111). Put plainly: Binding to NRAS by surface plasmon resonance (SPR), Single Cycle Kinetics. The conditions noted are these: for NRAS/KRAS (ratio of KD value with respect to GDP-bound NRAS wild-type protein to KD value with respect to KRAS): SPR KD ratio NRAS/KRAS, class symbols.
Where [3] appears, read: SPR, GDP-bound HRAS wild-type protein vs GDP-bound KRAS wild-type protein.
Setting [4] is: SPR, GDP-bound NRAS wild-type protein vs GDP-bound KRAS wild-type protein.

GDP-bound NRAS wild-type protein, sequence (P01111 whole entry): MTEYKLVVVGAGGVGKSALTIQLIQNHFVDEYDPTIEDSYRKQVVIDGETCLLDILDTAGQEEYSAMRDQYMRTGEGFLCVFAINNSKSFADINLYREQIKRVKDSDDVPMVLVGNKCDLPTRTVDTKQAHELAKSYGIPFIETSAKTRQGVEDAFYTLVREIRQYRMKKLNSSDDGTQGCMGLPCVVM
GDP-bound HRAS wild-type protein, sequence (P01112 whole entry): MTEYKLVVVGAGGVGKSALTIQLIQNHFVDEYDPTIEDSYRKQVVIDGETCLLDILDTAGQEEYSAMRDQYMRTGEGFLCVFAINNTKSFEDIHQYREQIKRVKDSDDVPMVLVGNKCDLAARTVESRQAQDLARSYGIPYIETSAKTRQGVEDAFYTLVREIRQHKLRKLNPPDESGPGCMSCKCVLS

As to `CCC[C@H]1C(=O)N[C@@H]([C@@H](C)CC)C(=O)N(C2CC2)CC(=O)N(C)[C@H]2C/C=C\CCN(C2=O)[C@@H](Cc2ccc(C)cc2)C(=O)N(C)CC(=O)N[C@@H](CCc2ccc(Cl)c(Cl)c2)C(=O)N2C[C@H](OCC)C[C@H]2C(=O)NC2(CC(C)(C)C2)C(=O)N(C)[C@@H](CC2CC2)C(=O)N(C)[C@H](C(=O)N(C)C)CC(=O)N1C` [PP2805], the “HRAS/KRAS (ratio of KD value with respect to GDP-bound HRAS wild-type protein to KD value with respect to KRAS)” value in test [1] is “A (a compound having 10 or more and less than 20 is denoted as A)”. Also, the “NRAS/KRAS (ratio of KD value with respect to GDP-bound NRAS wild-type protein to KD value with respect to KRAS)” value in test [2] is “A (a compound having 10 or more and less than 20 is denoted as A)”.

For `CCOC[C@H]1C(=O)N[C@@H]([C@@H](C)CC)C(=O)N(C2CC2)CC(=O)N(C)[C@H]2C/C=C\CCN(C2=O)[C@@H](CC2CCC(F)(F)CC2)C(=O)N(C)CC(=O)N[C@@H](CCc2ccc(C(F)(F)F)c(OC)c2)C(=O)N2C[C@H](OCC)C[C@H]2C(=O)N(C)C2(CCC2)C(=O)N(C)[C@@H](C(CC)CC)C(=O)N(C)[C@H](C(=O)N(C)C)CC(=O)N1C` [PP2351], the “HRAS/KRAS (ratio of KD value for HRAS to KD value for KRAS)” value in test [1] (setting [3]) is “A (a compound having 10 or more and less than 20 is denoted as A)”. The “NRAS/KRAS (ratio of KD value for NRAS to KD value for KRAS)” value in test [2] (setting [4]) is “A (a compound having 10 or more and less than 20 is denoted as A)”.

For the compound `CC[C@H](C)[C@@H]1NC(=O)[C@H](CC(C)C)N(C)C(=O)C[C@@H](C(=O)N(C)C)N(C)C(=O)[C@H](C2CCCC2)N(C)C(=O)C2(CCCC2)NC(=O)[C@@H]2CCCN2C(=O)[C@H](CCc2ccc(C(F)(F)F)c(Cl)c2)NC(=O)CN(C)C(=O)[C@H](Cc2ccc(C(F)(F)F)cc2)N2CC=CCOC[C@H](C2=O)N(C)C(=O)CN(C)C1=O` [PP0628], the “HRAS/KRAS (ratio of KD value with respect to HRAS to KD value with respect to KRAS)” value in test [1] (setting [3]) is “C (A compound having a KD ratio of 0.1 or more and less than 3 is denoted as C)”. Besides, the “NRAS/KRAS (ratio of KD value with respect to NRAS to KD value with respect to KRAS)” value in test [2] (setting [4]) is “C (A compound having a KD ratio of 0.1 or more and less than 3 is denoted as C)”.

Take `CCO[C@@H]1C[C@H]2C(=O)NC3(CCCC3)C(=O)N(C)[C@@H](C3CCCC3)C(=O)N(C)[C@H](C(=O)N3CCOCC3)CC(=O)N(C)[C@@H](CC(C)C)C(=O)N[C@@H]([C@@H](C)CC)C(=O)N(C)CC(=O)N(C)[C@H]3CCCCCN(C3=O)[C@@H](Cc3ccc(F)cc3)C(=O)N(C)CC(=O)N[C@@H](CCc3ccc(C(F)(F)F)c(Cl)c3)C(=O)N2C1` [PP0965]: in test [1] (setting [3]), the “HRAS/KRAS (ratio of KD value for HRAS to KD value for KRAS)” value was “B (a compound having 3 or more and less than 10 is denoted as B)”. In addition, in test [2] (setting [4]), the “NRAS/KRAS (ratio of KD value for NRAS to KD value for KRAS)” value is “B (a compound having 3 or more and less than 10 is denoted as B)”.

In the case of `CCO[C@@H]1C[C@H]2C(=O)NC3(CC(C)(C)C3)C(=O)N(C)[C@@H](C3CCCC3)C(=O)N(C)[C@H](C(=O)N(C)C)CC(=O)N(C)[C@@H](CC(C)C)C(=O)N[C@@H]([C@@H](C)CC)C(=O)N(C)CC(=O)N(C)[C@H]3C/C=C\CCN(C3=O)[C@@H](Cc3ccc(OC)cc3)C(=O)N(C)CC(=O)N[C@@H](CCc3ccc(C(F)(F)F)c(OC)c3)C(=O)N2C1` [PP2693], the “HRAS/KRAS (ratio of KD value with respect to GDP-bound HRAS wild-type protein to KD value with respect to KRAS)” value in test [1] is “B (a compound having 3 or more and less than 10 is denoted as B)”. In test [2], the “NRAS/KRAS (ratio of KD value with respect to GDP-bound NRAS wild-type protein to KD value with respect to KRAS)” value is “A (a compound having 10 or more and less than 20 is denoted as A)”.

With `CCOC[C@H]1C(=O)N[C@@H]([C@@H](C)CC)C(=O)N(C)CC(=O)N(C)[C@H]2CCCCCN(C2=O)[C@@H](Cc2ccc(C(F)(F)F)cc2)C(=O)N(C)CC(=O)N[C@@H](CCc2cc(F)c(C(F)(F)F)c(F)c2)C(=O)N2C[C@H](OCC)C[C@H]2C(=O)NC2(CCC2)C(=O)N(C)[C@@H](C2CCCC2)C(=O)N(C)[C@H](C(=O)N2CCOCC2)CC(=O)N1C` [PP0851], the “HRAS/KRAS (ratio of KD value for HRAS to KD value for KRAS)” value in test [1] (setting [3]) was “B (a compound having 3 or more and less than 10 is denoted as B)”. Further, the “NRAS/KRAS (ratio of KD value for NRAS to KD value for KRAS)” value in test [2] (setting [4]) is “B (a compound having 3 or more and less than 10 is denoted as B)”.

These data come from patent US20240158446A1, “CYCLIC COMPOUND HAVING SELECTIVE INHIBITORY ACTION ON KRAS OVER HRAS AND NRAS” (CHUGAI SEIYAKU KABUSHIKI KAISHA, priority 2021, published 2024).
